In US12378247B2, “Mesylate salt of para-topolin, compositions containing said salt and use thereof” (USTAV EXPERIMENTALNI BOTANIKY AV CR, V. V. I., priority 2020, dated 2025):

Columns and labels:
[1] = ORAC (Oxygen Radical Absorbance Capacity), ability to scavenge free radicals; assay type: biochemical; conditions: n = 3
Protocol: The ability of the substance to scavenge free radicals in vitro was determined using the ORAC (Oxygen Radical Absorbance Capacity) method. Briefly, 100 μl of fluorescein ([…]) and 25 μl of tested substance solution were pipetted into each well of a 96-well microtiter plate preheated to 37° C. The reaction itself was started by the addition of 25 μL 250 mM AAPH. After shaking for 5 s, the fluorescence (Ex. 485 nm, Em. 510 nm) was read every 3 min for 90 min using an Infinite 200 instrument (TECAN, Switzerland). The area under the curve was used to express the antioxidant capacity relative to trolox, which is used as a standard. […] Such activities are likely to be closely related to the electron-rich C6-hydroxybenzylamino substituent system.

[2] = system: Human diploid fibroblast BJ; test: MTT cytotoxicity assay in normal fibroblasts; assay type: cell-based; conditions: 72 hours
Protocol: MTT (metabolic tetrazolium toxicity) assay is a standard colorimetric assay for evaluation of cytotoxicity. Mitochondrial dehydrogenase activity converts yellow MTT into violet formazan which is measured by means of spectrometry. Human diploid fibroblast BJ (passage 18-22) were seeded into 96-well plate (5.000 cells per well). After 6 hours cultivation medium (DMEM with 5 g/l glucose, 2 mM glutamine, 100 U/ml penicillin, […] streptomycin, 10% fetal calf serum and sodium bicarbonate) was replaced with the cultivation medium containing test compounds in concentration range of 0-200 μM. Highest concentration was adjusted if the solubility of the compound was limiting. Every concentration was tested in pentaplicate. MTT was added to the cells after 72 hours incubation (final concentration 0.5 mg/ml) and incubation continued for another 3 hours. MTT was solubilised by DMSO and absorbance at 570 nm was measured. Growth inhibition (GI) was estimated using the following equitation: GI=(mean A drug exposed wells-mean Ablank/mean Acontrol wells−mean Ablank)×100%. The GI20 value, the drug concentration causing 20% decrease in mitochondrial dehydrogenase activity, was calculated from the obtained dose response curves.

Rat glioma C6 cells = test: Anti-inflammatory activity: isoproterenol-induced intracellular cAMP synthesis; assay type: cell-based; conditions: isoproterenol-induced cAMP, C6 cells
Protocol: The anti-inflammatory activity of para-topolin and para-topolin mesylate was determined; cytokinin kinetin was also evaluated as a control. Rat glioma C6 cells (ATCC No. CCL107) were cultured in a monolayer in chemically defined beser medium containing Ham's F10/minimal essential medium (1:1 v/v), 2 mM L-glutamine, 1% (v/v). Minimum vitamins of essential medium (100×), 1% (v/v) minimum essential amino acids (100×), 100 U/ml penicillin, […] streptomycin and 30 nM sodium selenite. Incubation was performed at 37° C. in a 100% humidified atmosphere. The assays were performed in logarithmic growth phase at a density of 2.5×10^5 cells/cm^2. Intracellular cAMP synthesis was induced by the addition of 5 mM (−)-isoproterenol; at the same time, various concentrations of tested compounds were added at the same time as (−)-isoproterenol. After 30 minutes of incubation, the cellular amount of CAMP was determined by ELISA (cAMP-enzyme immunoassay from Amersham). IC50 values were determined from the […] dose-response curve.

Structure (SMILES) | ORAC Average(TE), Trolox equivalents on equimolar basis [1] [TE] | Cytotoxicity for Human Diploid Fibroblasts GI20 [2] [µM] | Anti-inflammatory activity (in words) (Rat glioma C6 cells)
Oc1ccccc1CNc1ncnc2nc[nH]c12 [6-(2-hydroxybenzylamino)purine (oT), 6-(2-hydroxybenzylamino)purine] | 7.026 |  | 
Oc1cccc(CNc2ncnc3nc[nH]c23)c1 [6-(3-hydroxybenzylamino)purine (mT), 6-(3-hydroxybenzylamino)purine] | 4.509 |  | 
OC[C@H]1O[C@@H](n2cnc3c(NCc4ccccc4)ncnc32)[C@H](O)[C@@H]1O [6-(benzylamino)purine riboside] |  | 1.7 | 
c1coc(CNc2ncnc3nc[nH]c23)c1 [6-furfurylaminopurine (kinetin), 6-furfurylaminopurine] |  | >167 | inactive
OC[C@H]1O[C@@H](n2cnc3c(NCc4ccco4)ncnc32)[C@H](O)[C@@H]1O [6-furfurylaminopurine riboside] |  | 2.1 | 
